Reference: article PMC8781238 (European journal of medicinal chemistry, 2020)
“Also recorded” adds a separate entry of the source.

Assays:
[1] = system: U-251 MG human glioblastoma cells; test: In vitro cell viability assay; format: cell-based; conditions: 125 µM, 24 hours incubation; for Antitumor activity on U-251 MG cell viability (in words): compared with compound 7 (ABC294640)
SphK2 = conditions: cited from earlier work
SphK1 = conditions: read-out: SphK1 IC50; cited from earlier work
recombinant human SphK2 = molecular target: T1, recombinant human SphK2 (Homo sapiens, UniProt Q9NRA0); test: ADP-Glo kinase assay, SphK2; conditions: comparison of SphK1 and SphK2 activity at 125 µM compound (Fig. 5)
T1 sequence (Q9NRA0 1-654): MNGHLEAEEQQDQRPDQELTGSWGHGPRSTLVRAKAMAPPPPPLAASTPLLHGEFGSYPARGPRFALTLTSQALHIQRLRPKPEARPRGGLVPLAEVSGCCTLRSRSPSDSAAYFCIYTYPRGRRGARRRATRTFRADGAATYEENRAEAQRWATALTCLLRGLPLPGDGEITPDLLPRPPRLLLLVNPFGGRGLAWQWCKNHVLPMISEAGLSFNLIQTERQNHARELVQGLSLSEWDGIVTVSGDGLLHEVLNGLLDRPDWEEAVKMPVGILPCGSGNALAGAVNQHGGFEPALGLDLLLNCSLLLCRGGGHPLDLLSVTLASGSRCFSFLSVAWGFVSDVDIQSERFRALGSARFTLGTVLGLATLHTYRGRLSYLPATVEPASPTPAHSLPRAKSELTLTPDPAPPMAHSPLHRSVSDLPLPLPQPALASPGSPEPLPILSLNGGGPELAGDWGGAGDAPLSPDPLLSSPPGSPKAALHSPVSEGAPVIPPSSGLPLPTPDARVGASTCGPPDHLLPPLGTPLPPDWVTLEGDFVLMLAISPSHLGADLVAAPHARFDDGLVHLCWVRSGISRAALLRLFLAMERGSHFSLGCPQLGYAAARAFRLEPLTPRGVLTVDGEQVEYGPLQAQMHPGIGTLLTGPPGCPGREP

| Structure (SMILES) | Antitumor activity on U-251 MG cell viability (in words) [1] | Selectivity/specificity for SphK2 over SphK1 (in words) (recombinant human SphK2) | also measured |
| --- | --- | --- | --- |
| O=C(NCc1ccncc1)C12CC3CC(C1)CC(c1ccc(Cl)cc1)(C3)C2 [Compound 7] |  |  | Reduction of cell viability of U-251 MG cells [1]: approximately 50%; IC50 (SphK2; read-out: SphK2 IC50): ~60 µM; IC50 (SphK1): ≥ 100 µM |
| N=C(N)N1CCC[C@H]1Cc1nc(-c2ccc(Nc3nc(-c4cccc(C(F)(F)F)c4)cs3)cc2)no1 [Compound 13] |  |  | Ki (SphK2; read-out: SphK2 Ki): 0.09 µM |
| Cl.N=C(N)N1CCC[C@H]1Cc1nc(-c2ccc(Cn3cc(-c4ccccc4)nn3)cc2)no1 [Compound 21a, (S)-2-((3-(4-((4-Phenyl-1H-1,2,3-triazol-1-yl)methyl)phenyl)-1,2,4-oxadiazol-5yl)methyl)pyrrolidine-1-carboximidamide hydrochloride] | highest anti-tumor activity; also recorded: strongest antitumor activity |  |  |
| Cl.N=C(N)N1CCC[C@H]1Cc1nc(-c2ccc(Cn3cc(-c4ccc(C(F)(F)F)cc4)nn3)cc2)no1 [Compound 21b, (S)-2-((3-(4-((4-(4-(Trifluoromethyl)phenyl)-1H-1,2,3-triazol-1-yl)methyl)phenyl)-1,2,4-oxadiazol-5-yl)methyl)-pyrrolidine-1-carboximidamide hydrochloride] | highest anti-tumor activity; also recorded: strongest antitumor activity | lowest specificity; also recorded: no selective |  |
| Cl.N=C(N)N1CCC[C@H]1Cc1nc(-c2ccc(Cn3cc(-c4ccccn4)nn3)cc2)no1 [Compound 21c, (S)-2-((3-(4-((4-(Pyridin-2-yl)-1H-1,2,3-triazol-1-yl)methyl)phenyl)-1,2,4-oxadiazol-5-yl)methyl)pyrrolidine-1-carboximidamide hydrochloride] |  | high selectivity; also recorded: highest specificity |  |
| CCCCc1cn(Cc2ccc(-c3noc(C[C@@H]4CCCN4C(=N)N)n3)cc2)nn1.Cl [Compound 21d, (S)-2-((3-(4-((4-Butyl-1H-1,2,3-triazol-1-yl)methyl)phenyl)-1,2,4-oxadiazol-5-yl)methyl)pyrrolidine-1-carboximidamide hydrochloride] |  | lowest specificity; also recorded: no selective |  |
| COc1ccc(-c2cn(Cc3ccc(-c4noc(C[C@@H]5CCCN5C(=N)N)n4)cc3)nn2)cc1.Cl [Compound 21e, (S)-2-((3-(4-((4-(4-Methoxyphenyl)-1H-1,2,3-triazol-1-yl)methyl)phenyl)-1,2,4-oxadiazol-5-yl)methyl)pyrrolidine-1-carboximidamide hydrochloride] | comparable reduction of viability | high selectivity; also recorded: highest specificity |  |
| Cl.N=C(N)N1CCC[C@H]1Cc1nc(-c2ccc(Cn3cc(C4CC4)nn3)cc2)no1 [Compound 21f, (S)-2-((3-(4-((4-Cyclopropyl-1H-1,2,3-triazol-1-yl)methyl)phenyl)-1,2,4-oxadiazol-5-yl)methyl)pyrrolidine-1-carboximidamide hydrochloride] |  | lowest specificity; also recorded: no selective |  |
| Cl.Cn1cc(-c2cn(Cc3ccc(-c4noc(C[C@@H]5CCCN5C(=N)N)n4)cc3)nn2)cn1 [Compound 21g, (S)-2-((3-(4-((4-(1-Methyl-1H-pyrazol-4-yl)-1H-1,2,3-triazol-1-yl)methyl)phenyl)-1,2,4-oxadiazol-5-yl)methyl)pyrrolidine-1-carboximidamide hydrochloride] |  | high selectivity; also recorded: highest specificity |  |
| Cl.N=C(N)N1CCC[C@H]1c1nc(-c2ccc(Cn3cc(-c4ccc(C(F)(F)F)cc4)nn3)cc2)no1 [Compound 25b] | highest anti-tumor activity; also recorded: tremendously decrease the viability; also recorded: strongest antitumor activity; also recorded: higher antitumor activity |  |  |
| Cl.N=C(N)N1CCC[C@H]1c1nc(-c2ccc(Cn3cc(-c4ccccn4)nn3)cc2)no1 [Compound 25c, (S)-2-(3-(4-((4-(Pyridin-2-yl)-1H-1,2,3-triazol-1-yl)methyl)phenyl)-1,2,4-oxadiazol-5-yl)pyrrolidine-1-carboximidamide hydrochloride] |  | lowest specificity |  |
| COc1ccc(-c2cn(Cc3ccc(-c4noc([C@@H]5CCCN5C(=N)N)n4)cc3)nn2)cc1.Cl [Compound 25d] | comparable reduction of viability |  |  |
| CCCCc1cn(Cc2ccc(-c3noc([C@@H]4CCCN4C(=N)N)n3)cc2)nn1.Cl [Compound 25f] |  | high selective |  |
| Cl.N=C(N)N1CCC[C@H]1c1nc(-c2ccc(Cn3cc(C4CC4)nn3)cc2)no1 [Compound 25h] |  | high selective |  |
| Cl.N=C(N)C1(c2nc(-c3ccc(Cn4cc(-c5ccccc5)nn4)cc3)no2)CC1 [Compound 29a, 1-(3-(4-((4-Phenyl-1H-1,2,3-triazol-1-yl)methyl)phenyl)-1,2,4-oxadiazol-5-yl)cyclopropanecarboximidamide hydrochloride] |  | highly selective |  |
| Cl.Cn1cc(-c2cn(Cc3ccc(-c4noc(C5(C(=N)N)CC5)n4)cc3)nn2)cn1 [Compound 29b] |  | highly selective |  |
